Results from patent EP0745595A1, “3-(3-Aryloxyphenyl)-1-(substituted methyl)-s-triazine-2,4,6-oxo or thiotrione herbicidal agents” (American Cyanamid Company, priority 1995, dated 1996).

Tests used:
Type in all cases: in vivo
[1] = test system: ORYZA SATIVA, L. TEBONNET; experiment: Preemergence herbicidal evaluation, ORYSAT (Rice, Tebonnet); conditions: rated four to five weeks after treatment
Description: (§1) Results of herbicide evaluation are expressed on a rating scale (0-9). The scale is based upon a visual observation of plant stand, vigor, malformation, size, chlorosis and overall plant appearance as compared with a control.
(§2) The preemergence herbicidal activity of the test compounds of the present invention is exemplified by the following tests in which the seeds of a variety of monocotyledonous and dicotyledonous plants are separately mixed with potting soil and planted on top of approximately one inch of soil in separate pint cups. […] The treated cups are then placed on greenhouse benches, watered and cared for in accordance with conventional greenhouse procedures. From four to five weeks after treatment, the tests are terminated and each cup is examined and rated according to the rating system provided in Example 40.
(§3) The compounds evaluated are reported by compound number given in Example 40.

[2] = test system: GLYCINE MAX(L) MERR. CV. WILLIAMS; experiment: Preemergence herbicidal evaluation, GLXMAW (Soybean, Williams); conditions: rated four to five weeks after treatment
How it was run: (§4)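 First, seeds in potting soil are sown atop soil in cups. Next, the surface is sprayed with test compound in aqueous acetone at roughly 0.125 to 0.50 kg per hectare. After four to five weeks of greenhouse care, each cup is scored 0-9 against a control.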

[3] = test system: SETARIA VIRIDIS, (L) BEAU; experiment: Preemergence herbicidal evaluation, SETVI (Foxtail, Green); conditions: rated four to five weeks after treatment
Description: as §1, §2, §3

[4] = test system: IPOMOEA SPP.; experiment: Preemergence herbicidal evaluation, IPOSS (Morningglory spp.); conditions: rated four to five weeks after treatment
Description: as §1, §2, §3

[5] = test system: SAGITTARIA PYGMAEA, L.; experiment: Preemergence weed control under flooded paddy conditions, SAGPY (Arrowhead (Pygmaea)); conditions: preemergence, 3-4 weeks after treatment
How it was run: (§5)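 Visual 0-9 score (stand, vigor, malformation, size, chlorosis, appearance vs untreated control) taken 3-4 wk after treatment. Test compounds were added into flood water (1.5-3 cm over silt loam) as 50/50 v/v aqueous/acetone, equivalent to about 0.5-0.063 kg/ha a.i.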

[6] = test system: ECHINOCHLOA ORYZOIDES (ARD.)FRITSCH; experiment: Preemergence weed control under flooded paddy conditions, ECHORC (Watergrass (Calif.)); conditions: preemergence, 3-4 weeks after treatment
How it was run: as §5

[7] = test system: ORYZA SATIVA, L. TEBONNET; experiment: Rice tolerance to post-transplant applications under flooded paddy conditions, ORYSAT (Rice, Tebonnet); conditions: post-transplant rice, 3-4 weeks after treatment
How it was run: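 Visual 0-9 rating against untreated control (stand, vigor, malformation, size, chlorosis, overall appearance), taken 3-4 weeks after treatment. Flooded silt loam, water at 1.5-3 cm; two 10-day-old seedlings per pot; compound applied to flooded soil surface 3 days post-transplant at ~0.5-0.063 kg/ha.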

[8] = test system: ECHINOCHLOA CRUS-GALLI, (L) BEAU; experiment: Preemergence herbicidal evaluation, ECHCG (Barnyardgrass); conditions: rated four to five weeks after treatment
How it was run: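 In this preemergence herbicide test, cups holding seeds of ECHCG sown in potting soil over roughly one inch of soil were treated and then grown under conventional greenhouse care. Tests were ended four to five weeks after treatment, and injury was scored 0-9 from stand, vigor, malformation, size, chlorosis and overall appearance relative to a control.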

[9] = test system: CYPERUS SEROTINUS, ROTTB.; experiment: Preemergence weed control under flooded paddy conditions, CYPSE (Flatsedge); conditions: preemergence, 3-4 weeks after treatment
How it was run: as §5

[10] = test system: CASSIA OBTUSIFOLIA, L.; experiment: Preemergence herbicidal evaluation, CASOB (Sicklepod); conditions: rated four to five weeks after treatment
How it was run: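 Preemergence herbicidal activity against sicklepod was assessed by planting seed mixed with potting soil atop about one inch of soil in pint cups. After treatment the cups were watered and handled per standard greenhouse practice. Tests ended four to five weeks later, with plant stand, vigor, malformation, size, chlorosis and overall appearance scored 0-9 relative to a control.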

[11] = test system: CHENOPODIUM ALBUM, L.; experiment: Preemergence herbicidal evaluation, CHEAL (Lambsquarters, Common); conditions: rated four to five weeks after treatment
How it was run: as §4

[12] = test system: ZEA MAYS L.; experiment: Preemergence herbicidal evaluation, ZEAMX (Corn, Field); conditions: rated four to five weeks after treatment
How it was run: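 Preemergence herbicidal activity on field corn: seeds in potting soil were sown atop roughly one inch of soil in separate pint cups, treated, and grown under standard greenhouse care. Four to five weeks post-treatment, stand, vigor, malformation, size, chlorosis and overall appearance were compared with a control and scored 0-9.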

COC(=O)Cn1c(=O)[nH]c(=O)n(-c2cc(Oc3ccc(Cl)cc3Cl)ccc2[N+](=O)[O-])c1=O [Compound 14, Methyl 3-[5-(2,4-dichlorophenoxy)-2-nitrophenyl]tetrahydro-2,4,6-trioxo-s-triazine-1(2H)-acetate]
ORYSAT herbicidal rating ([1]; Rate 0.125 kg/ha): 1.0
ORYSAT herbicidal rating ([1]; Rate 0.250 kg/ha): 1.0
ORYSAT herbicidal rating ([1]; Rate 0.500 kg/ha): 1.0
GLXMAW herbicidal rating ([2]; Rate 0.125 kg/ha): 0.0
GLXMAW herbicidal rating ([2]; Rate 0.250 kg/ha): 0.0
GLXMAW herbicidal rating ([2]; Rate 0.500 kg/ha): 0.0
SETVI herbicidal rating ([3]; Rate 0.125 kg/ha): 0.0
SETVI herbicidal rating ([3]; Rate 0.250 kg/ha): 0.0
SETVI herbicidal rating ([3]; Rate 0.500 kg/ha): 0.0
IPOSS herbicidal rating ([4]; Rate 0.125 kg/ha): 0.0
IPOSS herbicidal rating ([4]; Rate 0.250 kg/ha): 0.0
IPOSS herbicidal rating ([4]; Rate 0.500 kg/ha): 0.0
Herbicidal effect rating, SAGPY ([5]; 0.063 kg/ha): 0.0
Herbicidal effect rating, SAGPY ([5]; 0.125 kg/ha): 0.0
Herbicidal effect rating, SAGPY ([5]; 0.250 kg/ha): 0.0
Herbicidal effect rating, SAGPY ([5]; 0.500 kg/ha): 0.0
Herbicidal effect rating, ECHORC ([6]; 0.063 kg/ha): 0.0
Herbicidal effect rating, ECHORC ([6]; 0.125 kg/ha): 0.0
Herbicidal effect rating, ECHORC ([6]; 0.250 kg/ha): 0.0
Herbicidal effect rating, ECHORC ([6]; 0.500 kg/ha): 0.0
Herbicidal effect rating, ORYSAT ([7]; 0.063 kg/ha): 0.0
Herbicidal effect rating, ORYSAT ([7]; 0.125 kg/ha): 0.0
Herbicidal effect rating, ORYSAT ([7]; 0.250 kg/ha): 0.0
Herbicidal effect rating, ORYSAT ([7]; 0.500 kg/ha): 0.0
ECHCG herbicidal rating ([8]; Rate 0.125 kg/ha): 0.0
ECHCG herbicidal rating ([8]; Rate 0.250 kg/ha): 0.0
ECHCG herbicidal rating ([8]; Rate 0.500 kg/ha): 0.0
Herbicidal effect rating, CYPSE ([9]; 0.063 kg/ha): 0.0
Herbicidal effect rating, CYPSE ([9]; 0.125 kg/ha): 0.0
Herbicidal effect rating, CYPSE ([9]; 0.250 kg/ha): 0.0
Herbicidal effect rating, CYPSE ([9]; 0.500 kg/ha): 0.0
CASOB herbicidal rating ([10]; Rate 0.125 kg/ha): 0.0
CASOB herbicidal rating ([10]; Rate 0.250 kg/ha): 0.0
CASOB herbicidal rating ([10]; Rate 0.500 kg/ha): 0.0
CHEAL herbicidal rating ([11]; Rate 0.125 kg/ha): 9.0
CHEAL herbicidal rating ([11]; Rate 0.250 kg/ha): 9.0
CHEAL herbicidal rating ([11]; Rate 0.500 kg/ha): 9.0
ZEAMX herbicidal rating ([12]; Rate 0.125 kg/ha): 0.0
ZEAMX herbicidal rating ([12]; Rate 0.250 kg/ha): 0.0
ZEAMX herbicidal rating ([12]; Rate 0.500 kg/ha): 0.0
